Results reported in patent US20240317735A1, “HYDROISOQUINOLINE OR HYDRONAPHTHYRIDINE COMPOUNDS FOR THE TREATMENT OF AUTOIMMUNE DISEASE” (Hoffmann-La Roche Inc., priority 2020, published 2024).

Test system: Balb/c 3T3 mouse fibroblasts
Experiment: 3T3 in vitro phototoxicity assay (Neutral Red uptake)
Type: cell-based
Details: for Phototoxicity factor: IC50 without vs with UV-A exposure, cut-off factor >5; for IC50: Mus musculus, BALB/c3T3, light or radiation study, 3T3 fibroblasts, approx. 5 J/cm^2 UVA, Neutral Red uptake
From the text: Phototoxicity is defined as a toxic response that is elicited after the first exposure of the skin to certain chemicals and subsequent exposure to light, or that is induced similarly by skin irradiation after systemic administration of a chemical substance. The assay used in this study is designed to detect the phototoxic potential of a chemical by using a simple in vitro cytotoxicity assay with Balb/c 3T3 mouse fibroblasts. The principle of this test is a comparison of the cytotoxicity of a chemical when tested with and without exposure to a non-toxic dose of UVA-light. Cytotoxicity is expressed as a dose dependent reduction of the growth rate of cells as determined by uptake of the vital dye Neutral Red one day after treatment.
A small amount of substance was weighed and formulated freshly in DMSO just before the start of the exposure of the cells. This stock solution or appropriate dilutions with DMSO were added to the cell suspensions to obtain the required final concentrations. All solutions were generally prepared in Eppendorf caps and discarded after use.
• Chlorpromazine (HCL) (Sigma, Batch/Lot No.: 120M1328V), test concentration: 300 μg/mL, Solvent: PBS/3% DMSO
For this study the Neutral Red uptake (NRU) assay of Borenfreund and Puerner (Borenfreund, E, Puerner J A. Toxicity determined in vitro by morphological alterations and Neutral Red absorption. Toxicology Lett. 1985; 24:119-124) modified according to INVITTOX protocol No 78 (ERGATT/FRAME data bank of in vitro techniques in toxicology. INVITTOX PROTOCOL No 78. 3T3 NRU Phototoxicity Assay. March 1994) has been adapted to examine a possible phototoxic potential of the test item. This assay is based on the active uptake of the Neutral Red dye into the lysosomes of cultured murine fibroblasts. Because lysosomal membranes are known to be a site of action of many phototoxic compounds, this assay can provide a measure of potential for phototoxic injury.
A murine fibroblasts clone A 31 (ATCC no. CCL 163—passage No. 108) were cultured in 175 cm^2 tissue culture grade flasks, containing sDMEM (Dulbecco's […] Essential Medium, supplemented with 10% fetal calf serum, 2 mM L-glutamine, 100 units/ml Penicillin and 100 μg/ml streptomycin) at 37° C. in a humidified atmosphere of 6% CO2. Before cells approach confluence they were removed from flasks by trypsinisation. Prior to use in an assay, the cells were transferred to 96-well microtiter plates at a concentration of 1×10^4 cells/well in 100 μl volumes of sDMEM and allowed to attach for 24 h.
For incubation with murine fibroblasts, the test item was diluted in PBS/3% DMSO (detailed concentrations see in results).
Culture medium (Dulbecco's Modified Eagle Medium(DMEM), GlutaMAX (Gibco Ref 21885-025), 10% Fetal Bovine Serum (FBS) (Gibco Ref 10270-106), 1001U/ml Penicillin and 100 μg/mL Streptomycin (Gibco Ref 15140-122)) was removed from the wells and murine fibroblasts were washed with PBS. Afterwards 100 μL of PBS/3% DMSO containing the test item was added and target cells were incubated for 1 h at 37° C. with 6% CO2.
For each test item the microtiter plates were prepared according to Table 6. “UVA plates” were exposed to approx. 5 J/cm^2 UVA light, the “Dark plates” were kept in the dark and served as cytotoxicity control. Plates with chlorpromazine hydrochloride served as positive control. UV flux was measured with a UV-meter (Dr. Gröbel RM21).
Following UV irradiation, the test item was removed from the wells (one washing step with PBS) and replaced with sDMEM. Target cells were then incubated overnight at 37° C. in 6% CO2.
Each plate contained wells with cells and solvent but without test item which were either not incubated with Neutral Red solution (0% standard—S1) or were stained with Neutral Red (100% standard—S2) for calculation of the standard cell viability curve. Wells labeled with U01-U08 contained the different test item concentrations. […]

SMILES | Phototoxicity factor | IC50
Cn1ncc2c(N3CCc4cc(N5CCNCC5)ccc4C3)ccnc21 [Example 3, 2-(1-methylpyrazolo[3,4-b]pyridin-4-yl)-6-piperazin-1-yl-3,4-dihydro-1H-isoquinoline] | 1 | > 100 mg/L
CO[C@@H]1CN(c2ccc3c(c2)[C@@H](C)CN(c2ccnc4c2cnn4C)C3)C[C@H]1N [Example 20, (3R,4R)-4-methoxy-1-[(4R)-4-methyl-2-(1-methylpyrazolo[3,4-b]pyridin-4-yl)-3,4-dihydro-1H-isoquinolin-6-yl]pyrrolidin-3-amine] | 1 | > 100 mg/L
CO[C@@H]1CN(c2ccc3c(n2)[C@@H](C)CN(c2cc(C)nc4c2cnn4C)C3)C[C@H]1N [Example 63, (3R,4R)-4-methoxy-1-[(8S)-6-(1,6-dimethylpyrazolo[3,4-b]pyridin-4-yl)-8-methyl-7,8-dihydro-5H-1,6-naphthyridin-2-yl]pyrrolidin-3-amine] | 1 | > 100 mg/L
